Measurements from patent US20230078764A1 (Yumanity Therapeutics, Inc., priority 2019, published 2023).

Key:
human SCD1 = molecular target: T1, human SCD1 (Homo sapiens, UniProt O00767); assay: Growth inhibition of yeast strain expressing human SCD1 as sole desaturase (OLE1 deleted), OD600 readout; format: cell-based; conditions: yeast strain expressing human SCD1 as sole desaturase; growth (OD600) after 40 h at 30° C.; read-out: SCD1 IC50
T1 construct: expressed in transfected cells; host or cells: yeast strain with OLE1 deleted, plasmid-borne human SCD1 (selected in SD-Ura)
T1 sequence (O00767 1-359): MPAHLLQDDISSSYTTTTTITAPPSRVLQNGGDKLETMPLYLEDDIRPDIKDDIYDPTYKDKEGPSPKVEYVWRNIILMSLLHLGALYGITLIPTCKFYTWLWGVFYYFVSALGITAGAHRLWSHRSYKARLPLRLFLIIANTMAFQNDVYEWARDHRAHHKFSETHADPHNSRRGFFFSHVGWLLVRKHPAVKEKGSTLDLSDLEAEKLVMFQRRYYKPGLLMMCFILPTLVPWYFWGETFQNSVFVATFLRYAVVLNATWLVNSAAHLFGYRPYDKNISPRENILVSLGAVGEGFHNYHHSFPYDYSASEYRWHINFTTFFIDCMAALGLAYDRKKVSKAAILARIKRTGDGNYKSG

human SCD5 = molecular target: T2, human SCD5 (Homo sapiens, UniProt Q86SK9); assay: Growth inhibition of yeast strain expressing human SCD5 as sole desaturase (OLE1 deleted), OD600 readout; format: cell-based; conditions: yeast strain expressing human SCD5 as sole desaturase; growth (OD600) after 40 h at 30° C.; read-out: SCD5 IC50
T2 construct: expressed in transfected cells; host or cells: yeast strain with OLE1 deleted, plasmid-borne human SCD5 (selected in SD-Ura)
T2 sequence (Q86SK9 1-330): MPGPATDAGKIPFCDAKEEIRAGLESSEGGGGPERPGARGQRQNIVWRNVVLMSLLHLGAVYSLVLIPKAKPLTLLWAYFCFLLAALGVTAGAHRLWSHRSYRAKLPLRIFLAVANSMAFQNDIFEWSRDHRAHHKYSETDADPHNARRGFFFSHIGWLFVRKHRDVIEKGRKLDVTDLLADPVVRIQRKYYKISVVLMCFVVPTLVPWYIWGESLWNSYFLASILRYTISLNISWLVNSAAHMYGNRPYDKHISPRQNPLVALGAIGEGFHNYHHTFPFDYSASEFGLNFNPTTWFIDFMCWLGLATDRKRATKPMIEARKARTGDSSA

Structure (SMILES)	IC50 (human SCD1) [µM]	IC50 (human SCD5) [µM]
Cn1cc(C(=O)Nc2ccc(Oc3cccc(Cl)c3)cn2)ccc1=O [Compound 161, N-[5-(3-chlorophenoxy)pyridin-2-yl]-1-methyl-6-oxo-1,6-dihydropyridine-3-carboxamide]	> 45	1.64
Cn1nc(C(=O)Nc2ccc(Oc3cccc(Cl)c3)cn2)ccc1=O [Compound 163, N-[5-(3-chlorophenoxy)pyridin-2-yl]-1-methyl-6-oxo-1,6-dihydropyridazine-3-carboxamide]	> 45	0.24
CCn1cc(C(=O)Nc2ccc(Oc3cccc(Cl)c3)cn2)ccc1=O [Compound 165, N-[5-(3-chlorophenoxy)pyridin-2-yl]-1-ethyl-6-oxo-1,6-dihydropyridine-3-carboxamide]	14.2	3.31
CC(C)n1cc(C(=O)Nc2ccc(Oc3cccc(Cl)c3)cn2)ccc1=O [Compound 166, N-[5-(3-chlorophenoxy)pyridin-2-yl]-6-oxo-1-(propan-2-yl)-1,6-dihydropyridine-3-carboxamide]	14.7	9.36
Cn1cc(C(=O)Nc2ccc(Oc3ccc(F)c(Cl)c3)cn2)ccc1=O [Compound 167, N-[5-(3-chloro-4-fluorophenoxy)pyridin-2-yl]-1-methyl-6-oxo-1,6-dihydropyridine-3-carboxamide]	25.9	0.93
Cn1nc(C(=O)Nc2ccc(Oc3ccc(F)c(Cl)c3)cn2)ccc1=O [Compound 168, N-[5-(3-chloro-4-fluorophenoxy)pyridin-2-yl]-1-methyl-6-oxo-1,6-dihydropyridazine-3-carboxamide]	> 45	1.72
CCn1cc(C(=O)Nc2ccc(Oc3ccc(F)c(Cl)c3)cn2)ccc1=O [Compound 169, N-[5-(3-chloro-4-fluorophenoxy)pyridin-2-yl]-1-ethyl-6-oxo-1,6-dihydropyridine-3-carboxamide]	> 45	2.48
CN1N=C(C(=O)Nc2ccc(OCc3cccc(Cl)c3)cn2)CCC1=O [Compound 170, N-(5-(3-chlorobenzyloxy)pyridin-2-yl)-1-methyl-6-oxo-1,4,5,6-tetrahydropyridazine-3-carboxamide]	> 45	1.07
Cn1nc(C(=O)Nc2ccc(OCc3cccc(Cl)c3)cn2)ccc1=O [Compound 171, N-(5-(3-chlorobenzyloxy)pyridin-2-yl)-1-methyl-6-oxo-1,6-dihydropyridazine-3-carboxamide]	> 45	0.86
Cn1cc(C(=O)Nc2ccc(COc3cccc(Cl)c3)cn2)ccc1=O [Compound 172, N-(5-((3-chlorophenoxy)methyl)pyridin-2-yl)-1-methyl-6-oxo-1,6-dihydropyridine-3-carboxamide]	2.29	0.37
Cn1cc(C(=O)Nc2ccc(CNc3cccc(Cl)c3)cn2)ccc1=O [Compound 173, N-(5-((3-Chlorophenylamino)methyl)pyridin-2-yl)-1-methyl-6-oxo-1,6-dihydropyridine-3-carboxamide]	1.72	0.15
Cn1nc(C(=O)Nc2ccc(CNc3cccc(Cl)c3)cn2)ccc1=O [Compound 174, N-(5-((3-Chlorophenylamino)methyl)pyridin-2-yl)-1-methyl-6-oxo-1,6-dihydropyridazine-3-carboxamide]	7.56	0.08
Cn1cc(C(=O)Nc2ccc(Cc3cccc(F)c3)nn2)ccc1=O [Compound 176, N-(6-(3-fluorobenzyl)pyridazin-3-yl)-1-methyl-6-oxo-1,6-dihydropyridine-3-carboxamide]	> 45	2.66
CN1N=C(C(=O)Nc2ccc(Cc3cc(Cl)ccc3F)nn2)CCC1=O [Compound 177, N-(6-(5-chloro-2-fluorobenzyl)pyridazin-3-yl)-1-methyl-6-oxo-1,4,5,6-tetrahydropyridazine-3-carboxamide]	> 45	5.49
O=C(Nc1ccc(Cc2cccc(F)c2)nn1)c1ccc(=O)n(C2CC2)n1 [Compound 178, 1-cyclopropyl-N-{6-[(3-fluorophenyl)methyl]pyridazin-3-yl}-6-oxo-1,6-dihydropyridazine-3-carboxamide]	6.67	0.77
CN1N=C(C(=O)Nc2ccc(Cc3ccc(F)c(Cl)c3)nn2)CCC1=O [Compound 179, N-(6-(3-chloro-4-fluorobenzyl)pyridazin-3-yl)-1-methyl-6-oxo-1,4,5,6-tetrahydropyridazine-3-carboxamide]	> 45	1.03
Cn1nc(C(=O)Nc2ccc(Cc3ccc(F)c(Cl)c3)nn2)ccc1=O [Compound 180, N-(6-(3-chloro-4-fluorobenzyl)pyridazin-3-yl)-1-methyl-6-oxo-1,6-dihydropyridazine-3-carboxamide]	6.02	0.91
CN1N=C(C(=O)Nc2ccc(COc3cccc(Cl)c3)nn2)CCC1=O [Compound 181, N-(6-((3-chlorophenoxy)methyl)pyridazin-3-yl)-1-methyl-6-oxo-1,4,5,6-tetrahydropyridazine-3-carboxamide]	> 45	1.22
Cn1cc(C(=O)Nc2ccc(Cc3cccc(Cl)c3)nn2)ccc1=O [Compound 183, N-(6-(3-chlorobenzyl)pyridazin-3-yl)-1-methyl-6-oxo-1,6-dihydropyridine-3-carboxamide]	10.7	1.41
CCn1cc(C(=O)Nc2ccc(Cc3cccc(Cl)c3)nn2)ccc1=O [Compound 184, N-(6-(3-chlorobenzyl)pyridazin-3-yl)-1-ethyl-6-oxo-1,6-dihydropyridine-3-carboxamide]	> 45	28.9
CCn1nc(C(=O)Nc2ccc(Cc3cccc(Cl)c3)nn2)ccc1=O [Compound 185, N-(6-(3-chlorobenzyl)pyridazin-3-yl)-1-ethyl-6-oxo-1,6-dihydropyridazine-3-carboxamide]	> 45	8.59
CN1N=C(C(=O)Nc2ccc(Cc3ccccc3)nn2)CCC1=O [Compound 186, N-(6-benzylpyridazin-3-yl)-1-methyl-6-oxo-1,4,5,6-tetrahydropyridazine-3-carboxamide]	> 45	12.6
CN1N=C(C(=O)Nc2ccc(Cc3cccc(C4CC4)c3)nn2)CCC1=O [Compound 187, N-(6-(3-cyclopropylbenzyl)pyridazin-3-yl)-1-methyl-6-oxo-1,4,5,6-tetrahydropyridazine-3-carboxamide]	> 45	6.51
CN1N=C(C(=O)Nc2ccc(Cc3ccc(Cl)c(Cl)c3)nn2)CCC1=O [Compound 188, N-(6-(3,4-dichlorobenzyl)pyridazin-3-yl)-1-methyl-6-oxo-1,4,5,6-tetrahydropyridazine-3-carboxamide]	4.4	0.19
Cn1cc(NC(=O)c2ccc(Cc3cccc(Cl)c3)nn2)ccc1=O [Compound 189, 6-(3-chlorobenzyl)-N-(1-methyl-6-oxo-1,6-dihydropyridin-3-yl)pyridazine-3-carboxamide]	> 45	5.07
CN1N=C(NC(=O)c2ccc(Cc3cccc(Cl)c3)nn2)CCC1=O [Compound 190, 6-(3-chlorobenzyl)-N-(1-methyl-6-oxo-1,4,5,6-tetrahydropyridazin-3-yl)pyridazine-3-carboxamide]	> 45	33
